From PubChem BioAssay (NCI)
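In this assay, cells in 96-well plates receive the compound at five concentrations for 48 hours. Endpoints are linearly interpolated between the surrounding concentrations. At the GI50, growth is halved. At the TGI there is no net growth.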

Legend:
Experiment in all cases: growth of human tumour cells (NCI), 48 h
[1] = system: HT29 colon
[2] = system: HCT-15 colon
[3] = system: SK-MEL-2 melanoma
[4] = system: MDA-MB-435
[5] = system: NCI-H460 lung
[6] = system: DU-145 prostate
[7] = system: SK-MEL-28 melanoma
[8] = system: IGROV1 ovarian
[9] = system: 786-0 renal
[10] = system: NCI-H226 lung

Compound	TGI [1]	TGI [2]	TGI [3]	TGI [4]	TGI [5]	TGI [6]	TGI [7]	TGI [8]	TGI [9]	TGI [10]	GI50 [2]	GI50 [5]	GI50 [10]	GI50 [6]	GI50 [7]	GI50 [8]	GI50 [9]	GI50 [1]	GI50 [3]	GI50 [4]
CC(CC(=O)O)(CC(=O)O)C(=O)O	> 100 µM	> 100 µM	> 100 µM	> 100 µM	> 100 µM	> 100 µM	> 100 µM	> 100 µM	> 100 µM											
COc1ccc([Se]c2ccc(OC)cc2OC)c(OC)c1	29.7 µM		92.2 µM		> 100 µM		77.1 µM	59.9 µM	> 100 µM	83.3 µM										
Cc1ccc(NC(=O)CCC(=O)C2CC(=O)CC/C2=N\NC(=O)c2cc3ccccc3cc2O)cc1C (centres undefined)	> 100 µM	> 100 µM	82.7 µM		> 100 µM		> 100 µM	66.9 µM	> 100 µM	97.2 µM										
CCCCCCCCCCCCCCCC[N+]1(CC)CCCC1		5.49 µM			1.62 µM	2.14 µM	2.81 µM	1.87 µM	2.61 µM	5.95 µM	1.35 µM	0.437 µM	1.18 µM	0.84 µM	1.18 µM	0.432 µM	1.18 µM			
CC(C)OP(=O)(OC(C)C)C(N(C)C)P(=O)(OC(C)C)OC(C)C.[Cl][Sn]([Cl])([Cl])[c]1ccccc1	12.8 µM	> 100 µM	5.3 µM		29.6 µM		75.4 µM	92.7 µM	12.3 µM	9.69 µM	3.11 µM	2.15 µM	2.05 µM		5.01 µM	3.61 µM	2.84 µM	0.923 µM	2.15 µM	
CC(=O)NC1C(OCc2ccccc2)OC(COC(=O)CCCCCCCCCCNC(=O)c2cccc3c(=O)c4ccccc4[nH]c23)C(O)C1OC(C)C(=O)NC(C)C(=O)NC(CCC(N)=O)C(N)=O (centres undefined)	> 100 µM	> 100 µM	> 100 µM		> 100 µM		> 100 µM	> 100 µM	> 100 µM	> 100 µM										
CC(C)c1ccc(/C=C(\NC(=O)c2ccccc2)c2nc3ccccc3[nH]2)cc1	> 100 µM	> 100 µM	89.3 µM		> 100 µM			> 100 µM	> 100 µM	> 100 µM										
CC(=O)[CH-]C(=O)c1ccccc1.CC(=O)[CH-]C(=O)c1ccccc1.[O]=[U+2]=[O]	57.4 µM	> 100 µM	> 100 µM		> 100 µM		> 100 µM	> 100 µM	> 100 µM		35.1 µM	36.9 µM			36.2 µM	55 µM	40.2 µM	23.4 µM	37.4 µM	
COC(=O)C(CC=O)C(=O)C(=O)Nc1cccc(C(F)(F)F)c1 (centres undefined)	> 100 µM	> 100 µM	> 100 µM		> 100 µM		> 100 µM	> 100 µM	> 100 µM	> 100 µM										
Clc1ccc2c(Cl)ncnc2c1	> 100 µM	> 100 µM	> 100 µM		> 100 µM		> 100 µM	> 100 µM	> 100 µM	> 100 µM										
COc1ccc(C2=CC(c3cc(OC)c(OC)c(OC)c3)n3ncnc3N2)cc1 (centres undefined)	11.2 µM	> 100 µM	71.1 µM		13.7 µM	97.8 µM	> 100 µM	31.1 µM	> 100 µM	71 µM	0.042 µM	0.0418 µM	7.99 µM	0.0648 µM	10.9 µM	0.0912 µM	0.0448 µM	0.0381 µM	16.9 µM	
CC[C@]12C=CCN3CC[C@]4(C(=C(C(=O)OC)C1)Nc1cc(O)ccc14)[C@@H]32	63.1 µM	36.5 µM	48.6 µM	16.8 µM	38.5 µM	45.3 µM	42.5 µM	57.3 µM	40.8 µM		14.6 µM	18.9 µM		21.7 µM	17 µM	19.1 µM	15.7 µM	19.9 µM	18.2 µM	3.63 µM
N#Cc1c2c(c(N=[N+]=[N-])n3c1nc1ccccc13)CCCC2	3.77 µM	4.38 µM	3.58 µM		3.82 µM		14 µM	6.56 µM	3.53 µM	3.35 µM										
COC(=O)/C(=N\NC(=O)c1ccccc1O)C(C#N)c1ccc(Cl)cc1 (centres undefined)	> 100 µM	> 100 µM	> 100 µM		> 100 µM		> 100 µM	> 100 µM	> 100 µM											
O=C(Oc1c(I)ccccc1=O)c1ccc([N+](=O)[O-])cc1	24.8 µM	31.7 µM	45.1 µM	42.4 µM	23.5 µM	26.8 µM	21.7 µM	29.2 µM	> 100 µM											
CN1CC2(CCCCC2)C(O)C12C=CCCC2 (centres undefined)	> 100 µM	> 100 µM	> 100 µM				> 100 µM	> 100 µM	> 100 µM	> 100 µM										
O=C1OCC(C(=O)c2cccc(O)c2)C1=O (centres undefined)	> 100 µM	> 100 µM			> 100 µM		> 100 µM	> 100 µM	> 100 µM	> 100 µM										
CC1=CC2=C(C)C3(CC3)[C@@](C)(O)C(=O)C2=C1	0.803 µM	0.454 µM	0.365 µM		0.431 µM		0.394 µM	> 0.979 µM	0.517 µM	0.492 µM										
CCOC(=O)c1cnc2[nH]c(=O)c3ccccc3n2c1=O	> 100 µM	> 100 µM	> 100 µM		> 100 µM		> 100 µM	> 100 µM	> 100 µM	> 100 µM										
CCC1OCCN1C(C)C (centres undefined)		> 100 µM	> 100 µM		> 100 µM		92.2 µM	> 100 µM	> 100 µM											
O=c1c2ccccc2nc(-c2ccccc2)n1NCC1(O)OCC(O)C(O)C1O (centres undefined)	> 100 µM	> 100 µM	> 100 µM		> 100 µM		> 100 µM	> 100 µM	> 100 µM	> 100 µM										
Cn1c(=O)c2c3oc(=O)cc(O)c3c(=O)n3c4ccccc4n(c1=O)c23	> 100 µM	> 100 µM	69 µM		> 100 µM			> 100 µM	> 100 µM											
